Measured values as given in ChEMBL document CHEMBL3632478, “Design, synthesis and biological evaluation of imidazopyridine/imidazopyrimidine-benzimidazole conjugates as potential anticancer agents” (Medchemcomm, 2015).

These compounds were tested on DU-145 (assay: Antiproliferative activity against human DU145 cells after 48 hrs by MTT assay). Settings: DU-145, 48 h.
Type: functional, cell-based

| Compound | IC50 [µM] |
| --- | --- |
| Cc1ccc2nc(-c3c(-c4ccccc4)nc4ncccn34)[nH]c2c1 | 2.34 |
| COc1ccc(-c2nc3ccccn3c2-c2nc3ccc(Cl)cc3[nH]2)cc1 | 19.5 |
| Cc1ccc2nc(-c3c(-c4ccc(F)cc4)nc4ncccn34)[nH]c2c1 | 10.2 |

Second part, the compound after the results:

| IC50 [µM] | Compound |
| --- | --- |
| 16 | COc1ccc2nc(-c3c(-c4ccc(F)cc4)nc4ncccn34)[nH]c2c1 |
| 13.2 | COc1ccc(-c2nc3ncccn3c2-c2nc3ccccc3[nH]2)cc1 |

The compounds below were run on B16 (assay: Antiproliferative activity against mouse B16 cells after 48 hrs by MTT assay). Settings: B16, 48 h.
Type: functional, cell-based

| Compound | IC50 [µM] |
| --- | --- |
| Cc1ccc2nc(-c3c(-c4ccccc4)nc4ncccn34)[nH]c2c1 | 8.91 |
| COc1ccc(-c2nc3ccccn3c2-c2nc3ccc(Cl)cc3[nH]2)cc1 | 16 |
| Cc1ccc2nc(-c3c(-c4ccc(F)cc4)nc4ncccn34)[nH]c2c1 | 15.1 |

Second part, the compound after the results:

| IC50 [µM] | Compound |
| --- | --- |
| > 30 | COc1ccc2nc(-c3c(-c4ccc(F)cc4)nc4ncccn34)[nH]c2c1 |
| 16.7 | COc1ccc(-c2nc3ncccn3c2-c2nc3ccccc3[nH]2)cc1 |

Each compound was assayed on A549 (assay: Antiproliferative activity against human A549 cells after 48 hrs by MTT assay). Settings: A549, 48 h.
Type: functional, cell-based

| Compound | IC50 [µM] |
| --- | --- |
| Cc1ccc2nc(-c3c(-c4ccccc4)nc4ncccn34)[nH]c2c1 | 2.19 |
| COc1ccc(-c2nc3ccccn3c2-c2nc3ccc(Cl)cc3[nH]2)cc1 | 19.4 |
| Cc1ccc2nc(-c3c(-c4ccc(F)cc4)nc4ncccn34)[nH]c2c1 | > 30 |

Other lines, results leading:

| IC50 [µM] | Compound |
| --- | --- |
| 18.6 | COc1ccc2nc(-c3c(-c4ccc(F)cc4)nc4ncccn34)[nH]c2c1 |
| 10.5 | COc1ccc(-c2nc3ncccn3c2-c2nc3ccccc3[nH]2)cc1 |

Each compound was assayed on HeLa (assay: Antiproliferative activity against human HeLa cells after 48 hrs by MTT assay). Settings: not given.
Type: functional, cell-based

| Compound | IC50 [µM] |
| --- | --- |
| Cc1ccc2nc(-c3c(-c4ccccc4)nc4ncccn34)[nH]c2c1 | 7.58 |
| COc1ccc(-c2nc3ccccn3c2-c2nc3ccc(Cl)cc3[nH]2)cc1 | 14.5 |
| Cc1ccc2nc(-c3c(-c4ccc(F)cc4)nc4ncccn34)[nH]c2c1 | 12.9 |

Continued, values first:

| IC50 [µM] | Compound |
| --- | --- |
| 19.9 | COc1ccc2nc(-c3c(-c4ccc(F)cc4)nc4ncccn34)[nH]c2c1 |
| 9.06 | COc1ccc(-c2nc3ncccn3c2-c2nc3ccccc3[nH]2)cc1 |
